Source: the NIST ThermoML archive (doi:10.1021/je400157s)
± gives the expanded uncertainty stated by the source.

How the values were obtained:
[1] = molar heat capacity at constant pressure; settings: 101.33 kPa, Liquid, Small sample (50 mg) DSC
[2] = Liquid; for mass density: 101.33 kPa, Vibrating tube method; for speed of sound: Pulse-echo method

CCCCCCCCCC(=O)OCC [ethyl decanoate]
Settings | mass density, [2] [kg/m3] | molar heat capacity at constant pressure, [1] [J/K/mol]
283.15 K | 872.11 ± 0.17 | –
286.16 K | – | 397.73 ± 6.2
288.15 K | 868.06 ± 0.17 | 398.53 ± 6.2
293.15 K | 864 ± 0.17 | 400.88 ± 6.2
298.15 K | 859.94 ± 0.17 | 403.34 ± 6.2
303.15 K | 855.88 ± 0.17 | –
303.16 K | – | 405.67 ± 6.3
308.14 K | 851.82 ± 0.17 | –
308.16 K | – | 408.17 ± 6.3
313.14 K | 847.75 ± 0.17 | –
313.16 K | – | 410.93 ± 6.4
318.15 K | 843.68 ± 0.17 | 413.64 ± 6.4
323.15 K | 839.6 ± 0.18 | 416.52 ± 6.5
328.15 K | 835.52 ± 0.18 | –
328.16 K | – | 419.55 ± 6.5
333.14 K | – | 422.31 ± 6.6
333.15 K | 831.43 ± 0.18 | –
338.14 K | 827.33 ± 0.18 | –
338.15 K | – | 425.46 ± 6.6
341.11 K | – | 427.36 ± 6.6
343.15 K | 823.23 ± 0.18 | –
348.15 K | 819.11 ± 0.18 | –
353.14 K | 814.99 ± 0.18 | –

[2]
Settings | speed of sound [m/s]
292.9 K, 30390 kPa | 1453.5 ± 2.2
292.9 K, 45590 kPa | 1511.7 ± 2.2
292.9 K, 60790 kPa | 1565.9 ± 2.3
292.9 K, 75990 kPa | 1616.7 ± 2.3
292.9 K, 101320 kPa | 1693.9 ± 2.4
292.91 K, 15200 kPa | 1389.4 ± 2.2
292.91 K, 91180 kPa | 1664.3 ± 2.4
292.92 K, 100 kPa | 1313.8 ± 1.3
298.17 K, 30390 kPa | 1436.1 ± 2.2
298.17 K, 45590 kPa | 1494.9 ± 2.2
298.17 K, 60790 kPa | 1549.4 ± 2.3
298.17 K, 75990 kPa | 1601.3 ± 2.3
298.17 K, 91180 kPa | 1648.6 ± 2.4
298.17 K, 101320 kPa | 1678.8 ± 2.4
298.18 K, 100 kPa | 1293.9 ± 1.3
298.18 K, 15200 kPa | 1370.6 ± 2.2
303.16 K, 100 kPa | 1275.2 ± 1.3
303.16 K, 30390 kPa | 1419.1 ± 2.2
303.16 K, 45590 kPa | 1479.6 ± 2.2
303.16 K, 60790 kPa | 1534.7 ± 2.3
303.16 K, 75990 kPa | 1586.9 ± 2.3
303.16 K, 91180 kPa | 1635 ± 2.4
303.16 K, 101320 kPa | 1665.9 ± 2.4
303.17 K, 15200 kPa | 1353.1 ± 2.2
308.13 K, 45590 kPa | 1464.6 ± 2.2
308.13 K, 75990 kPa | 1572.1 ± 2.3
308.13 K, 101320 kPa | 1652.9 ± 2.4
308.14 K, 100 kPa | 1256.8 ± 1.3
308.14 K, 15200 kPa | 1335.4 ± 2.2
308.14 K, 30390 kPa | 1403 ± 2.2
308.14 K, 60790 kPa | 1520.1 ± 2.3
308.14 K, 91180 kPa | 1621.8 ± 2.4
313.09 K, 45590 kPa | 1449.8 ± 2.2
313.09 K, 75990 kPa | 1559.2 ± 2.3
313.09 K, 91180 kPa | 1608.6 ± 2.4
313.09 K, 101320 kPa | 1639 ± 2.4
313.1 K, 30390 kPa | 1387.5 ± 2.2
313.1 K, 60790 kPa | 1506.2 ± 2.3
313.11 K, 100 kPa | 1238.5 ± 1.3
313.11 K, 15200 kPa | 1318.7 ± 2.2
318.26 K, 75990 kPa | 1544.9 ± 2.3
318.26 K, 91180 kPa | 1594.7 ± 2.4
318.26 K, 101320 kPa | 1626.5 ± 2.4
318.27 K, 15200 kPa | 1301.6 ± 2.2
318.27 K, 30390 kPa | 1371.7 ± 2.2
318.27 K, 45590 kPa | 1434.9 ± 2.2
318.27 K, 60790 kPa | 1491.6 ± 2.3
318.28 K, 100 kPa | 1219.7 ± 1.3

CCCCCCCC(=O)OCC [ethyl octanoate]
Settings | mass density, [2] [kg/m3] | molar heat capacity at constant pressure, [1] [J/K/mol]
278.15 K | 879.5 ± 0.17 | –
283.15 K | 875.22 ± 0.17 | –
285.01 K | – | 338 ± 5.2
288.15 K | 870.94 ± 0.17 | –
288.16 K | – | 339.38 ± 5.3
293.15 K | 866.65 ± 0.17 | 341.09 ± 5.3
298.15 K | 862.36 ± 0.17 | 343.12 ± 5.3
303.15 K | 858.07 ± 0.17 | –
303.16 K | – | 345.31 ± 5.4
308.15 K | 853.76 ± 0.17 | 347.48 ± 5.4
313.15 K | 849.46 ± 0.18 | 349.66 ± 5.4
318.15 K | 845.14 ± 0.18 | –
318.16 K | – | 351.96 ± 5.5
323.15 K | 840.81 ± 0.18 | 354.35 ± 5.5
328.14 K | – | 356.9 ± 5.5
328.15 K | 836.47 ± 0.18 | –
333.15 K | 832.12 ± 0.18 | 358.95 ± 5.6
338.15 K | 827.76 ± 0.18 | 361.55 ± 5.6
343.15 K | 823.39 ± 0.18 | –
343.16 K | – | 363.7 ± 5.6
343.78 K | – | 364.29 ± 5.7
348.15 K | 819 ± 0.18 | –
353.15 K | 814.59 ± 0.18 | –
358.15 K | 810.17 ± 0.18 | –

[2]
Settings | speed of sound [m/s]
292.9 K, 101320 kPa | 1668.8 ± 2.4
292.91 K, 45590 kPa | 1484.7 ± 2.2
292.91 K, 60790 kPa | 1539.2 ± 2.3
292.91 K, 75990 kPa | 1590 ± 2.3
292.91 K, 91180 kPa | 1638.3 ± 2.4
292.92 K, 15200 kPa | 1359 ± 2.2
292.92 K, 30390 kPa | 1426.7 ± 2.2
292.94 K, 100 kPa | 1281.8 ± 1.3
298.2 K, 45590 kPa | 1468.7 ± 2.2
298.2 K, 60790 kPa | 1523.7 ± 2.3
298.2 K, 75990 kPa | 1575 ± 2.3
298.2 K, 91180 kPa | 1623.9 ± 2.4
298.21 K, 30390 kPa | 1407.9 ± 2.2
298.21 K, 101320 kPa | 1654.1 ± 2.4
298.22 K, 100 kPa | 1261.5 ± 1.3
298.22 K, 15200 kPa | 1340.8 ± 2.2
303.13 K, 45590 kPa | 1453.6 ± 2.2
303.13 K, 60790 kPa | 1509.1 ± 2.3
303.13 K, 75990 kPa | 1561.4 ± 2.3
303.13 K, 91180 kPa | 1610.1 ± 2.4
303.13 K, 101320 kPa | 1639.9 ± 2.4
303.14 K, 15200 kPa | 1324.2 ± 2.2
303.14 K, 30390 kPa | 1391.8 ± 2.2
303.2 K, 100 kPa | 1242.5 ± 1.3
308.11 K, 15200 kPa | 1307.5 ± 2.2
308.11 K, 30390 kPa | 1376.3 ± 2.2
308.11 K, 45590 kPa | 1438.7 ± 2.2
308.11 K, 60790 kPa | 1494.9 ± 2.3
308.11 K, 75990 kPa | 1547.2 ± 2.3
308.11 K, 91180 kPa | 1596.5 ± 2.4
308.11 K, 101320 kPa | 1627.7 ± 2.4
308.17 K, 100 kPa | 1223.6 ± 1.3
313.09 K, 60800 kPa | 1480.5 ± 2.3
313.09 K, 91180 kPa | 1582.8 ± 2.4
313.1 K, 75990 kPa | 1533 ± 2.3
313.1 K, 101320 kPa | 1614.8 ± 2.4
313.11 K, 15200 kPa | 1290.2 ± 2.2
313.11 K, 30390 kPa | 1360.2 ± 2.2
313.11 K, 45590 kPa | 1423.1 ± 2.2
313.15 K, 100 kPa | 1205 ± 1.3
318.24 K, 30390 kPa | 1343.9 ± 2.2
318.26 K, 15200 kPa | 1273 ± 2.2
318.26 K, 45590 kPa | 1407.4 ± 2.2
318.26 K, 60800 kPa | 1466 ± 2.3
318.26 K, 75990 kPa | 1519.4 ± 2.3
318.26 K, 91180 kPa | 1569.6 ± 2.4
318.27 K, 101320 kPa | 1601.6 ± 2.4
318.32 K, 100 kPa | 1185.7 ± 1.3
